Active and inactive are the calls of the source. No cut-off for these calls is given here.
Tests used:
[1] = Plasma concentration in Crl:NRMI mouse at 50 mg/kg, po administered via gavage measured after 180 mins by LC-MS/MS analysis; format: ADME, organism-based
[2] = Selectivity index, ratio of IC50 for mouse spleen cells to IC50 for asynchronous form of Plasmodium falciparum 3D7 infected in human erythrocytes; format: toxicity, cell-based; conditions: read-out: Ratio IC50
[3] = Toxicity in BALB/c mouse infected with Plasmodium berghei ANKA assessed as death at 50 mg/kg, po administered twice daily for 4 days; format: organism-based; conditions: in vivo, 96 h
[4] = Acute toxicity in Crl:NRMI mouse assessed as death at 50 mg/kg, iv measured after 15 to 180 mins by LC-MS/MS analysis; format: organism-based; conditions: in vivo
[5] = Cytotoxicity against mouse spleen cells; format: cell-based
Plasmodium falciparum [6] = test: Antiplasmodial activity against asynchronous form of Plasmodium falciparum 3D7 infected in human erythrocytes assessed as parasite growth inhibition at 10 uM after 48 hrs by SYBR green1 staining based flow cytometry relative to control; format: functional; conditions: 3D7, 48 h
[7] = biological target: DNA (cytosine-5)-methyltransferase 1 (Homo sapiens, UniProt P26358); test: Inhibition of recombinant human DNMT1 using biotinylated DNA duplex as substrate measured after 2 hrs in presence of Adomet/[methyl-3H]Adomet by topcount method
DNA (cytosine-5)-methyltransferase 1, sequence (P26358 whole entry): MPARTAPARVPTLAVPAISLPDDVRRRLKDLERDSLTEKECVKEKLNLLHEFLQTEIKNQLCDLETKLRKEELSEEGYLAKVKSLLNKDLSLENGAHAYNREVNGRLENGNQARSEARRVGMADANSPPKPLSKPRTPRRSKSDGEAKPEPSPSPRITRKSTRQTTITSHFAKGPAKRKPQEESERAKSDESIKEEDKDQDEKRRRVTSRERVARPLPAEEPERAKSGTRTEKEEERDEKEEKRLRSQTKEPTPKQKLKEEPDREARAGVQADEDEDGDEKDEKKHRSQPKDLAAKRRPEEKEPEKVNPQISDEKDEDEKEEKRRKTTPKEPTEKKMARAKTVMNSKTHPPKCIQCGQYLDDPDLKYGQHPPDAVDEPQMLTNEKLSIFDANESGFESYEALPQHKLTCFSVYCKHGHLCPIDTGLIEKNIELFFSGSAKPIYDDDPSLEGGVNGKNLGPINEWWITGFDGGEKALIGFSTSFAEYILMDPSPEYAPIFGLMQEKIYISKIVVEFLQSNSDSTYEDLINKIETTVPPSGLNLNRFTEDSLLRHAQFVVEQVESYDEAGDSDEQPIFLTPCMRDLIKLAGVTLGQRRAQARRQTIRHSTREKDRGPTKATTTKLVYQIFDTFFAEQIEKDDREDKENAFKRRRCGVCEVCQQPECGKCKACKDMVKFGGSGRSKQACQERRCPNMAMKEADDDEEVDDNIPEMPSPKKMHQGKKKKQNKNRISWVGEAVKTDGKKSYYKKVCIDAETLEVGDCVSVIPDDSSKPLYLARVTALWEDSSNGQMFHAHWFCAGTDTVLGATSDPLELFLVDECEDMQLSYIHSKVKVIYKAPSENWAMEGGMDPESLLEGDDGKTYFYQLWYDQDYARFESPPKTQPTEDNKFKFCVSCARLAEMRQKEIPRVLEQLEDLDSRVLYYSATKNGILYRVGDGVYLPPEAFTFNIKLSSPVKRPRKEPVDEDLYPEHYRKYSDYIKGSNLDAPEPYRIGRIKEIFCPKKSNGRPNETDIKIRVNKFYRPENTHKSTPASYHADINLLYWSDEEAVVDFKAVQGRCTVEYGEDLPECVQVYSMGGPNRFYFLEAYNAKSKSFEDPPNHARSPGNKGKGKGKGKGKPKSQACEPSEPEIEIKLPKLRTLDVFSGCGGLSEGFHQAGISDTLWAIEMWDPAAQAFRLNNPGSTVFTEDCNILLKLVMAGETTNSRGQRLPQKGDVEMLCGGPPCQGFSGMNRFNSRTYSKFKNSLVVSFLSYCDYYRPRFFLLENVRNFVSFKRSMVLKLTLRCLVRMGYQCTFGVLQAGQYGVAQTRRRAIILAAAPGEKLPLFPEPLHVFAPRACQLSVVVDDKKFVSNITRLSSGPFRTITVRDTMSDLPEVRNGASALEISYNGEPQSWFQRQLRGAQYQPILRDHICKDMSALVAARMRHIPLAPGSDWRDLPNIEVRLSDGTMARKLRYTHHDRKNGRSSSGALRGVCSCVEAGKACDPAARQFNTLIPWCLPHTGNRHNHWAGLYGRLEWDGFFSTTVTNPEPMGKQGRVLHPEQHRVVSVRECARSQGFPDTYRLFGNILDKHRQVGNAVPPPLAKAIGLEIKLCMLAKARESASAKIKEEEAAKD

[8] = Stability in phosphate buffered saline at pH 7.4 after 24 hrs by UV/RP-HPLC analysis; format: physicochemical; conditions: buffer, pH 7.4, 24 h
[9] = Plasma concentration in Crl:NRMI mouse at 50 mg/kg, po administered via gavage measured after 30 mins by LC-MS/MS analysis; format: ADME, organism-based
HFF = test: Cytotoxicity against HFF; format: cell-based; conditions: Homo sapiens
Plasmodium falciparum [10] = test: Antiplasmodial activity against asynchronous form of Plasmodium falciparum W2 infected in human erythrocytes assessed as parasite growth inhibition after 48 hrs by SYBR green1 staining based flow cytometry; format: functional, organism-based; conditions: W2, 48 h
[11] = Toxicity in BALB/c mouse infected with Plasmodium berghei ANKA assessed as death at 25 mg/kg, po administered twice daily for 4 days; format: organism-based; conditions: in vivo, 96 h
Plasmodium berghei [12] = test: Antimalarial activity against Plasmodium berghei ANKA infected in BALB/c mouse assessed as parasitemia at 25 mg/kg, po administered twice daily for 4 days measured up to 14 days post infection by Giemsa-staining based microscopic analysis (reference value: 4%); format: functional
Plasmodium berghei [13] = test: Antimalarial activity against Plasmodium berghei ANKA infected in BALB/c mouse assessed as reduction in parasitemia at 10 mg/kg, po administered twice daily for 4 days by Giemsa-staining based microscopic analysis; format: functional, organism-based
Plasmodium berghei [14] = test: Antimalarial activity against Plasmodium berghei ANKA infected in BALB/c mouse assessed as reduction in parasitemia at 25 mg/kg, po administered twice daily for 4 days by Giemsa-staining based microscopic analysis; format: functional, organism-based
Plasmodium falciparum [15] = test: Antiplasmodial activity against asynchronous form of Plasmodium falciparum 3D7 infected in human erythrocytes assessed as parasite growth inhibition after 48 hrs by SYBR green1 staining based flow cytometry; format: functional, organism-based; conditions: 3D7, 48 h
[16] = biological target: T1, Histone-lysine N-methyltransferase EHMT2 (Homo sapiens, UniProt Q96KQ7); test: Inhibition of recombinant human N-terminal GST-fused G9a (786 to 1210 residues) expressed in Escherichia coli using biotinylated H3 (1 to 21 residues) as substrate measured after 1 hr in presence of 3H-Adomet by filter binding assay
T1 sequence (Q96KQ7 whole entry): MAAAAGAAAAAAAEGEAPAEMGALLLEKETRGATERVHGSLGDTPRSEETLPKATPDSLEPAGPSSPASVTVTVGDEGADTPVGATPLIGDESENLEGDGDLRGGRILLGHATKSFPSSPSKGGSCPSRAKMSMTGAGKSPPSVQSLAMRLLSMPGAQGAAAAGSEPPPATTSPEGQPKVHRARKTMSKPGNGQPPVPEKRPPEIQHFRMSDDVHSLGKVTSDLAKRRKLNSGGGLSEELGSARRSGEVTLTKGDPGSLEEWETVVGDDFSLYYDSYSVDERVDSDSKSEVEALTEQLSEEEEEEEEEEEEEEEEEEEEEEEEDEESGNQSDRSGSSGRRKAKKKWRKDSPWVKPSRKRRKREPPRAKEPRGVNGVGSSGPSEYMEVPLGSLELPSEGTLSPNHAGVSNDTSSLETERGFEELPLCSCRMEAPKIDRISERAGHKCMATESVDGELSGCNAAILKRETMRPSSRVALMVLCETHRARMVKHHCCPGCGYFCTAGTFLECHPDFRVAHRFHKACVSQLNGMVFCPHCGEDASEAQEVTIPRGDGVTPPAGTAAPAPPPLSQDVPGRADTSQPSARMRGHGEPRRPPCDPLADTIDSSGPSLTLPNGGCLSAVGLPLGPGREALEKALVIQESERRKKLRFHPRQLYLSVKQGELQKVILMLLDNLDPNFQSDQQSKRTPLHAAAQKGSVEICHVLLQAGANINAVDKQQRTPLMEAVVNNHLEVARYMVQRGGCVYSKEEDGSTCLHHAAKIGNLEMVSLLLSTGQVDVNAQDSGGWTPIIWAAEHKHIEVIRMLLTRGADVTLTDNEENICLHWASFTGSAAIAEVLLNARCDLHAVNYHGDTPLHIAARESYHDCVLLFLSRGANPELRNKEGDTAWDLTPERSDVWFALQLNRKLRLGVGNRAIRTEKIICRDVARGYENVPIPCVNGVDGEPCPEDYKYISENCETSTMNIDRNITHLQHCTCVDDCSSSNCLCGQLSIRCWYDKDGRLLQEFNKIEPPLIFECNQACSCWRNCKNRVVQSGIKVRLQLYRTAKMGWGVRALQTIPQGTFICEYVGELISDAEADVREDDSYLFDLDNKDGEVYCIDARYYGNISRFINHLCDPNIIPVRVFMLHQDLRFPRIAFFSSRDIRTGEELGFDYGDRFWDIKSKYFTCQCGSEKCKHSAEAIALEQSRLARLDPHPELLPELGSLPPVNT

[17] = biological target: T2, DNA (cytosine-5)-methyltransferase 3A (Homo sapiens, UniProt Q9Y6K1); test: Inhibition of recombinant human DNMT3a C-terminal catalytic domain (623 to 908 residues) using 5'-biotinylated/3'-FAM-oligonucleotide as substrate measured after 1 hr in presence of Adomet by fluorescence assay
T2 sequence (Q9Y6K1 whole entry, looked up, the tested form may be a part): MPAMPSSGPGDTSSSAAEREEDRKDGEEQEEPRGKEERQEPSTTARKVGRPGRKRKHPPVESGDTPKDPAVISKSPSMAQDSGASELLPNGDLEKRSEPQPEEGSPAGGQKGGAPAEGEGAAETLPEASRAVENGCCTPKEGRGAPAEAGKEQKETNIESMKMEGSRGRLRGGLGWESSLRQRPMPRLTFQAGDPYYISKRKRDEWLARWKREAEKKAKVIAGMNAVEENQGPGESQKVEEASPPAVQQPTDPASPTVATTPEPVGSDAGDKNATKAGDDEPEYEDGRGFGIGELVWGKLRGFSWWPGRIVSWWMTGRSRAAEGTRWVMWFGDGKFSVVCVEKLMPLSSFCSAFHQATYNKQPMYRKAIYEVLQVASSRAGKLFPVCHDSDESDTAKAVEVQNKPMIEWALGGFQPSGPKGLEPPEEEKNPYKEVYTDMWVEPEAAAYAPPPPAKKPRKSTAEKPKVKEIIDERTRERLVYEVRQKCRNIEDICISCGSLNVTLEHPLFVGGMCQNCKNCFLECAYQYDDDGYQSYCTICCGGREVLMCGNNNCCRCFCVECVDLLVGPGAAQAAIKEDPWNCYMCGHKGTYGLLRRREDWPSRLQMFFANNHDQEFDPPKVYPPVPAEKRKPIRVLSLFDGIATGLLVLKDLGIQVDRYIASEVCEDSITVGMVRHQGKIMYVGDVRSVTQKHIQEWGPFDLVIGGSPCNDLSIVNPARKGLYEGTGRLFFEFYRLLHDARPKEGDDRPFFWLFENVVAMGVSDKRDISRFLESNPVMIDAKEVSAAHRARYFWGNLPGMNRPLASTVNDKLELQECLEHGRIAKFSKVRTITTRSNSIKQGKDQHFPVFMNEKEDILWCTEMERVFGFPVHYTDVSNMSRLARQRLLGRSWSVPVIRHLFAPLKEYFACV

[18] = Plasma concentration in Crl:NRMI mouse at 50 mg/kg, po administered via gavage measured after 60 mins by LC-MS/MS analysis; format: ADME, organism-based
Plasmodium falciparum [19] = test: Antiplasmodial activity against Plasmodium falciparum Dd2 infected in human erythrocytes assessed as reduction in [3H]-hypoxanthine incorporation measured after 48 hrs by microbeta liquid scintillation counting method; format: functional, organism-based
[20] = Plasma concentration in Crl:NRMI mouse at 10 mg/kg, iv measured after 15 mins by LC-MS/MS analysis; format: ADME, organism-based
[21] = Plasma concentration in Crl:NRMI mouse at 10 mg/kg, iv measured after 60 mins by LC-MS/MS analysis; format: ADME, organism-based
Plasmodium berghei [22] = test: Antimalarial activity against Plasmodium berghei ANKA infected in BALB/c mouse assessed as reduction in parasitemia at 20 mg/kg, po administered twice daily for 4 days by Giemsa-staining based microscopic analysis; format: functional, organism-based
[23] = Plasma concentration in Crl:NRMI mouse at 10 mg/kg, po administered via gavage measured after 60 mins by LC-MS/MS analysis; format: ADME, organism-based
[24] = Stability in phosphate buffered saline at pH 7.4 assessed as parent compound remaining after 24 hrs by UV/RP-HPLC analysis; format: physicochemical; conditions: read-out: Stability
[25] = Plasma concentration in Crl:NRMI mouse at 10 mg/kg, po administered via gavage measured after 30 mins by LC-MS/MS analysis; format: ADME, organism-based
Plasmodium berghei [26] = test: Antimalarial activity against Plasmodium berghei ANKA infected in BALB/c mouse assessed as reduction in parasitemia at 20 mg/kg, po administered twice daily for 4 days measured day 6 to 11 post infection by Giemsa-staining based microscopic analysis; format: functional, organism-based
[27] = Solubility of the compound in DPBS at >1 ug/ml; format: physicochemical
[28] = Plasma concentration in Crl:NRMI mouse at 10 mg/kg, iv measured after 180 mins by LC-MS/MS analysis; format: ADME, organism-based
Plasmodium berghei [29] = test: Antimalarial activity against Plasmodium berghei ANKA infected in BALB/c mouse assessed as reduction in parasitemia at 20 mg/kg, po administered twice daily for 5 days by Giemsa-staining based microscopic analysis; format: functional, organism-based
[30] = Plasma concentration in Crl:NRMI mouse at 10 mg/kg, po administered via gavage measured after 180 mins by LC-MS/MS analysis; format: ADME, organism-based
Plasmodium berghei [31] = test: Antimalarial activity against Plasmodium berghei ANKA infected in BALB/c mouse assessed as reduction in parasitemia at 50 mg/kg, po administered twice daily for 4 days by Giemsa-staining based microscopic analysis; format: functional, organism-based
Plasmodium berghei [32] = test: Antimalarial activity against Plasmodium berghei ANKA infected in BALB/c mouse assessed as parasitemia at 50 mg/kg, po administered twice daily for 4 days measured up to 14 days post infection by Giemsa-staining based microscopic analysis (reference value: 31 to 58%); format: functional
[33] = Plasma concentration in Crl:NRMI mouse at 50 mg/kg, iv measured after 180 mins by LC-MS/MS analysis; format: ADME, organism-based
[34] = Plasma concentration in Crl:NRMI mouse at 50 mg/kg, iv measured after 60 mins by LC-MS/MS analysis; format: ADME, organism-based
[35] = Plasma concentration in Crl:NRMI mouse at 50 mg/kg, iv measured after 15 mins by LC-MS/MS analysis; format: ADME, organism-based
[36] = tested on: Plasmodium falciparum 3D7; test: Inhibition of Plasmodium falciparum 3D7 HDAC assessed as increase in histone H4 acetylation at 3 times antiplasmodial IC50 relative to control
Plasmodium berghei [37] = test: Antimalarial activity against Plasmodium berghei ANKA infected in BALB/c mouse assessed as reduction in parasitemia at 50 mg/kg, po administered twice daily (one dose iv and one dose po) for 4 days by Giemsa-staining based microscopic analysis; format: functional, organism-based
[38] = biological target: T2, DNA (cytosine-5)-methyltransferase 3A; test: Inhibition of recombinant human DNMT3a C-terminal catalytic domain (623 to 908 residues) at 10 uM using 5'-biotinylated/3'-FAM-oligonucleotide as substrate measured after 1 hr in presence of Adomet by fluorescence assay relative to control

| SMILES | concentration at 3 h [1] [µM] | selectivity ratio [2] | Activity [4] | IC50 [5] [µM] | inhibition at 10 µM (Plasmodium falciparum [6]) [%] | EC50 [7] [µM] | Stability [8] | concentration at 0.5 h [9] [µM] | IC50 (HFF) [µM] | IC50 (Plasmodium falciparum [10]) [µM] | IC50 (Plasmodium falciparum [15]) [µM] | EC50 [16] [µM] | EC50 [17] [µM] | concentration at 1 h [18] [µM] | IC50 (Plasmodium falciparum [19]) [µM] | Activity (Plasmodium berghei [31]) | other results |
| --- | --- | --- | --- | --- | --- | --- | --- | --- | --- | --- | --- | --- | --- | --- | --- | --- | --- |
| COc1cc2c(NC3CCN(Cc4ccccc4)CC3)nc(N3CCN(c4ccccc4)CC3)nc2cc1OCc1ccccc1 | 0.28 to 0.39 | > 295 | Toxic | > 10 | 100 | > 100 | Stable | 0.38 to 0.94 | 5.63 | 0.0399 | 0.034 | > 100 | 1.6 | 0.48 to 0.7 | 0.0813 | – | Activity [3]: Toxic; Activity [11]: Non-Toxic; Activity (Plasmodium berghei [12]): 2%; Activity (Plasmodium berghei [13]): Active; Activity (Plasmodium berghei [14]): Active |
| COc1cc2nc(NCc3ccc(F)cc3)nc(NC3CCN(C(=O)OC(C)(C)C)CC3)c2cc1OC | – | > 500 | – | > 10 | 100 | > 100 | – | – | 7.17 | 0.0436 | 0.0187 to 0.0189 | 137 | 8.7 | – | 0.0185 | – | concentration at 0.25 h [20]: 3.41 to 5.11 µM; concentration at 1 h [21]: 0.93 to 1.11 µM; Activity (Plasmodium berghei [22]): Active; concentration at 1 h [23]: 0.1 to 0.28 µM; remaining at 24 h [24]: 60%; concentration at 0.5 h [25]: 0.12 to 0.13 µM; Activity (Plasmodium berghei [26]): inactive; solubility [27]: Insoluble; concentration at 3 h [28]: 0.22 to 0.46 µM; Activity (Plasmodium berghei [29]): Active; concentration at 3 h [30]: 0.03 µM |
| COc1cc2c(NC3CCN(Cc4ccccc4)CC3)nc(N3CCN(c4ccccc4)CC3)nc2cc1O | 0.29 to 0.67 | 255 | Toxic | 2.58 | 100 | > 100 | Stable | 3.43 to 4.57 | 7.21 | 0.0186 | 0.0101 | > 100 | 6.2 | 1.04 to 3.52 | 0.0426 | Active | Activity (Plasmodium berghei [32]): <10% |
| O=C(CCCCSc1nc(-c2ccc(-c3ccccc3)cc2)cc(=O)[nH]1)NO | 0.07 to 0.3 | 186 | – | 0.785 | 96.1 to 97 | – | Stable | 0.67 to 2.43 | 3.29 | 0.0066 | 0.004 to 0.006 | – | – | 0.48 to 0.9 | 0.004 | inactive | concentration at 3 h [33]: 0.043 to 0.044 µM; concentration at 1 h [34]: 1.67 to 2.16 µM; concentration at 0.25 h [35]: 10.7 to 15.2 µM; fold change (FC) [36]: < 2; Activity (Plasmodium berghei [37]): inactive |
| c1ccc(COc2ccc3c(NC4CCN(Cc5ccccc5)CC4)nc(N4CCN(c5ccccc5)CC4)nc3c2)cc1 | – | – | – | – | 100 | – | – | – | – | – | 0.0669 | – | – | – | – | – | inhibition [38]: 43% |
